Measured values published in a melting point compilation (Tetko et al.; mined from patent text by program, amines drawn as free bases though some values may be those of a salt).

Structure (SMILES)	melting point [°C]
CS(=O)(=O)OCCC1c2ccccc2COc2ccccc21 (configuration not stated)	64 to 66
CCC(=O)c1cc(C2(c3cccc(-c4cccnc4F)c3)N=C(N)N(C)C2=O)cn1CC(F)(F)F (configuration not stated)	108 to 110
Cc1cc(C(=O)c2cc(C(F)(F)F)cc(C(F)(F)F)c2)ccc1N(C)C	145 to 147
COc1nc(NC(=O)NS(=O)(=O)c2ccccc2S(=O)(=O)N2CCC2)nc(OC)n1	175 to 177
CCCCCCCCCCCCOC(=O)c1cc(N)ccc1[N+](=O)[O-]	58 to 59
COc1cc2c(cc1OC)NC(=O)N(CCCN(C)CCCSc1ccccc1)CC2	107 to 110
CC(C)C(=O)[C@H]1CCn2c(cc3ccccc32)C1	78 to 79
CN(C)c1c(C(N)=O)sc2cccc(Cl)c12	194 to 196
Nc1nc(Cl)cc(C#Cc2ccc3c(C(=O)Nc4cccc(C(F)(F)F)c4)cccc3c2)n1	171 to 175
CCOC(=O)c1cn(CC)c2nc(N3CCN(CCO)CC3)ncc2c1=O	172
CCN(CC)CC(=O)Nc1ccc(NC(=O)Nc2ccc(N(CCCl)CCCl)cc2)cc1	209 to 211
CCOC(=O)c1cn2c(cc(OC)c3cc(OC)c(OC)cc32)n1	195 to 197
Cc1ccc(S(=O)(=O)NC2N=C(c3ccccc3F)c3ccccc3NC2=O)cc1 (racemic)	215 to 216
Cc1nnc(-c2ccc3occ(-c4ccc(S(C)(=O)=O)c(F)c4)c3c2)o1	199 to 200
CS(=O)(=O)c1c(Sc2ccccc2)cccc1C(=O)O	185 to 186
CCOC(=O)CON(CC)C(=S)Nc1ccccc1C(C)C	57 to 58
Nc1c(C(=O)c2cc(Cl)ccn2)[nH]c2cc(Cl)ccc12	234 to 235
C=CCCNS(=O)(=O)CC(=O)C1=C(C)NC(C)=C(C(=O)OC(C)C)C1c1cccc([N+](=O)[O-])c1 (configuration not stated)	137 to 140
Cc1nc2nccc(Cl)c2cc1Br	160 to 164
Cc1ccc(-c2c(C(=O)O)n(CCCBr)c(=O)c3ncccc23)cc1	194 to 196
CC(NC(=O)c1cc(Cl)ccc1N)C1CC1 (configuration not stated)	135
Cc1ccc(S(=O)(=O)NC(=O)NCCc2ccc(-n3c(C(C)O)nc4cc(C(F)(F)F)c(Cl)cc43)cc2)cc1 (configuration not stated)	220

Structure (SMILES)	melting point [°C]
CN(C)c1ccc(Cn2cnc3c(-c4ccco4)ncnc32)cc1	158 to 160
CS(=O)(=O)c1ccc(-c2nc(=O)c3ccccc3s2)cn1	205 to 207
O=[N+]([O-])c1ccc(OCCc2ccc(CCl)cn2)cc1	77 to 78
CCCCCS(=O)(=O)NC(=O)/C(C)=C/c1ccc(OCCOC)cc1Oc1ncc(C(F)(F)F)cc1Cl	108 to 111
NNc1nc(Cl)nc2ccccc12	> 280
COc1ccc(CC2=Cc3ncccc3Nc3cccnc32)cc1	124 to 127
CC(C)C[C@@H](C=O)NC(=O)[C@H](Cc1c[nH]cn1)NC(=O)[C@H](Cc1ccc2ccccc2c1)NC(=O)OCc1ccccc1	110 to 112
CN1Cc2c(/C=C\Cl)ncn2-c2cccc(Cl)c2C1=O	205 to 207
O=C(OCc1ccccc1)c1ncoc1CCNC(=O)[C@H](Cc1cccs1)N[C@@H](CCc1ccccc1)C(=O)OCc1ccccc1	81 to 83
CC(C)(C)N(Cc1ccccc1)CC(O)c1cc(OCc2ccccc2)cc(OCc2ccccc2)c1 (configuration not stated)	78 to 79
CC1(C)CC(=O)C(C(=O)Nc2ccc(Cl)c(C(F)(F)F)c2)C(=O)O1 (configuration not stated)	156
CC(=O)OCC12CCC(=O)C=C1CCC1C2CCC2(C)C(O)CCC12 (configuration not stated)	125 to 127
O=C(N[C@@H](CS(=O)(=O)c1ccc(Oc2ccccc2)cc1)C(=O)NO)OCc1ccccc1	195 to 202
Cc1ccc([C@@H]2CO[C@@H](c3ccc(C)cc3)CO2)cc1	200
NNC(=O)C(Cl)(Cl)c1cccc(Cl)n1	198 to 200
COc1cc(-n2c(=O)cc(C(F)(F)F)n(C)c2=O)c(F)cc1Cl	128 to 130
CCNC(=O)/C=C/c1cccc(Cl)c1	87 to 88
CCc1nnc(-c2ccc(OC)cc2)n1-c1ccccc1C	118
O=C(O)c1ccccc1CN1C(=O)C2(COc3cc4c(cc32)OCO4)c2ccccc21 (configuration not stated)	> 250
COc1cc(OC)c(C(C)=O)c(O)c1OC	114 to 116
NC(=S)Nc1c(Br)cccc1Br	186 to 189
CC1(Sc2ccccc2)C(=O)C2CC=CC21 (configuration not stated)	49

Structure (SMILES)	melting point [°C]
Cn1c2c(cnc3c([N+](=O)[O-])cccc32)c(=O)n1C(=O)OC(C)(C)C	> 250
Cc1cc(-c2nc3cccnn3c2-c2ccnc(NC(=O)Nc3ccc(C#N)cc3)c2)ccc1F	204 to 206
COc1cccc(-c2nc3n(n2)CCc2cc(OC)ccc2-3)c1	101 to 103
Brc1ccc(-c2nc3cc(Br)ccc3s2)cc1	162 to 163
COc1ccc(-c2cc(=O)c3c(O)cc(O)cc3o2)cc1OCC(O)CO (configuration not stated)	215 to 218
COC(=O)c1nc(NC(=O)CCCOc2cccc(CN3CCCCC3)c2)n(C)n1	108 to 110
CCOC(=O)COc1c(OC)cc(Cl)c2c1CN1CCc3cc(OC)c(O)cc3C1C2 (single isomer, unassigned; (-))	132
CC(=O)NC[C@H]1CN(c2ccc(N3CCC4(CCO4)CC3)c(F)c2)C(=O)O1	164 to 166
COCCc1nc2cnc3cc(Br)cnc3c2n1CC(C)(C)O	125
O=C1c2ccccc2C(=O)N1OCc1ccn(C(c2ccccc2)(c2ccccc2)c2ccccc2)n1	177 to 179
COc1cc(-n2cnnc2I)ccc1C	123
O=C1CC(c2cccc(-n3ccnc3)c2)=Nc2ccc(-c3ccc(OCc4ccccc4)nc3)cc2N1	225 to 231
CC1(C)C(C=CC(=O)OCC(F)(F)F)C1C(=O)OC(C#N)c1ccc(F)c(Oc2ccccc2)c1 (configuration not stated)	56
CC(C)Cn1c(C(=O)O)c(OCCCC(F)(F)F)c2cc(OCc3ccccc3)ccc2c1=O	130 to 131
O=C(CCCN1CCOCC1)c1ccc2c(c1)Cc1cc(C(=O)CCCN3CCOCC3)ccc1O2	110 to 112
CCC(=O)Nc1ccc(C(=O)CC)cc1	154 to 155
O=C1COc2cc(OCc3c(F)cccc3F)ccc21	134 to 138
Oc1nc2cccnc2n1Cc1ccccc1	177 to 179
CCCOc1ccccc1-c1nc2nc(N)nnc2c(=O)[nH]1	255 to 256
Nc1ncnc2c1ncn2C=CC=O	258 to 260
CCOc1ccc(-c2nc(CCC(=O)c3ccccc3C#N)cs2)cc1OCC	114 to 115

Now from value to compound:

melting point [°C]	Structure (SMILES)
196 to 197	O=C(O)c1cc2ccc(OCc3ccccc3)cc2oc1=O
115 to 119	COc1ccc2c(c1)c(C(C)=NOC1CCCCO1)c(C)n2C(=O)c1ccc(Cl)cc1 (configuration not stated)
145 to 146	CC(C)(C)NC(=O)N1CC(Oc2ccc(C(F)(F)F)cc2)C1
78 to 81	NS(=O)(=O)OCCCN1CCC(C(O)(c2ccc(F)cc2)c2ccc(F)cc2)CC1
172 to 174	C[C@H](NC(=O)[C@H](Cc1ccccc1)NC(=O)CS)C(=O)O
226 to 228	CN1CCN(c2ccnc3c(NC(=O)c4ccccc4[N+](=O)[O-])cccc23)C1=O
178 to 180	CC(=S)NC[C@H]1CN(c2ccc(N3CCC(C#N)(C(C#N)C#N)CC3)c(F)c2)C(=O)O1
61 to 62	CC(C)CCCC(C)Cc1cncn1Cc1ccccc1 (configuration not stated)
120 to 122	CS(=O)(=O)Nc1ccc(C(=O)Cc2ccccc2)cc1Sc1ccc(F)cc1F
163 to 164	C=C(C)Cc1c(C)c(NC=O)c(C)c(C)c1O
74 to 75	COC[C@H]1CN(c2ccc3nc([C@@H](O)CCC#N)sc3c2)C(=O)O1
173 to 174	O=C1NC(=O)C2(c3cccc([N+](=O)[O-])c3)CC12 (configuration not stated)
127 to 128	CCOC(=O)c1c(C)cc(OCc2cccc(OCc3ccc4ccccc4n3)c2)cc1O
184	CSc1ncc(S(N)(=O)=O)c(Nc2cccc(C)c2)n1
138 to 140	CC(C)C[C@@H](C(=O)O)N1C(=O)[C@@H](N2C(=O)OC[C@@H]2c2ccccc2)[C@H]1CCc1ccccc1
290 to 292	COC(=O)c1coc(-c2ccc(NS(=O)(=O)c3sc4ccc(F)cc4c3C)c(S(C)(=O)=O)c2)n1

melting point [°C]	Structure (SMILES)
134 to 137	c1ccc(COc2ccc(C(c3ccc(OCc4ccccc4)cc3)n3cncn3)cc2)cc1
75 to 76	CCc1cc(-n2cncn2)ncn1
159 to 161	COc1ccc(CCNC(=O)C2=C(C(=O)Nc3cc(OC4CCCC4)c(Cl)cc3F)CCCC2)cc1OC
109 to 111	CCOC(=O)[C@H](Cc1cccc(Oc2ccc(O)cc2)c1)NC(=O)C(F)(F)F
158 to 160	COc1cc(C)nc(NC(=O)NS(=O)(=O)c2ccccc2N=NN(C)C)n1
221 to 223	CC(=NNC(=O)c1cccc(C)c1)c1cc(Cl)cc(Cl)c1O
145 to 146	S=C=Nc1ccc(-c2nc(-c3ccccn3)no2)cc1
255 to 257	O=C(Nc1cccc(S(=O)(=O)NC2(CO)CCCC2)c1)c1cnn2c(C3CC3)cc(-c3ccc(Cl)cc3)nc12
227 to 230	CNC(=O)c1ccc(-c2ccc3nnn(Cc4ccc5ncccc5c4)c3n2)cc1Cl
164 to 166	COC(=O)c1cccc(-c2c(C)[nH]c(=S)n2Nc2cccc(C)c2)c1
134 to 138	N#Cc1ccccc1Nc1ccccc1[N+](=O)[O-]
148 to 150	Cc1cc(Cl)cc(C)c1NC(=O)N(CCC(C)(C)C)Cc1ccc(CC(C)(C)C)cc1
156	CC#CCOc1ccc(SC(C(=O)NO)c2ccc(OC)cc2)cc1 (configuration not stated)
95 to 101	CN1CCN(c2ccc(Nc3ncc4ccc(-c5ccccc5OCC#N)n4n3)cc2)CC1
224 to 225	CCCCc1nc2ccc(C(=O)OC)cc2n1Cc1ccc(-c2ccccc2-c2nnn[nH]2)cc1
55 to 56	CCCCCCCCCCCCCCCC/C=C\OC[C@H](O)CO
